Assay results as given in US8563746B2, “Cyclic benzimidazole derivatives useful as anti-diabetic agents” (Merck Sharp & Dohme Corp, priority 2008, dated 2013).

Each molecule was assayed against recombinant human AMPK complex 1 (containing α1β1γ1) (Homo sapiens, UniProt Q13131+Q9Y478) (assay: In vitro AMPK activation assay ([…])). Conditions: recombinant human AMPK complex 1 (α1β1γ1); basal activity subtracted, expressed as % maximum AMP activation.
Type: biochemical
Protocol: The recombinant human AMPK complex 1 (containing α1β1γ1) was obtained from baculovirus expression system. Recombinant viruses were generated by cotransfection of AMPK/pBacPak9 clones with Baculogold baculovirus DNA (Pharmingen) in spodoptera frugiperda 21 cells according to the manufacturer's instructions. Each round of virus amplification was performed for 5 days in Grace's medium containing 10% serum. Virus that had been subjected to three rounds of amplification was used for all protein production procedures. To express the AMPK complex, sf21 cells were adapted to serum free medium (SF900 II, Invitrogen) by sequential dilution from serum containing stocks into SF900II medium and maintained in shaker flasks at 90 rpm at 27° C. The recombinant AMPK enzyme complex was produced by triple infection, one recombinant virus for each of the subunits, in sf21 cells under serum free conditions. Cells were infected in log phase, 1×10^6 cells/ml, at a multiplicity of infection of ˜5. Cells were harvested by centrifugation at 10,000×g for 15 minutes after 72 hours of infection with viruses. The insect cell pellet from 2 liters of culture was resuspended in 50 ml lysis buffer (20 mM Tris-HCl, 50 mM NaCl, 50 mM NaF, 30 mM Na PPi, 0.25 M sucrose, 10 mM ZnCl2, 2 mM DTT, 0.4 mg/ml digitonin) and subjected to two cycles of freeze-thaw lysis in a dry-ice ethanol bath. Insoluble material was removed by centrifugation at 10,000×g and the supernatant was fractionated with use of polyethylene glycol (PEG). The protein fraction precipitating between 2.5 and 6% PEG was used for further purification using a Blue-Sepharose step (Zhou et al, J. Clin. Invest. 108, 1167-1174, 2001).
The total in vitro AMPK activation assay volume is 50 μl in a 96-well plate. The reaction mixture contained 100 μM ATP (0.5 μCi ^33P-ATP per reaction), and 50 μM SAMS ([…]) in a buffer (20 mM HEPES, pH 7.0, 5 mM MgCl2, 0.01% Brij35). The reaction was initiated with addition of the enzyme. After 30-minute incubation at 30° C., the reaction was stopped by addition of 80 μl 1% H3PO4. Aliquots (100 μl) were transferred to 96-well MultiScreen plates (MAPHNOB50; Millipore Corp., Bedford, Mass., USA). The plate was washed three times with 1% H3PO4 followed by detection in a Top-count. The counts per minute from the basal activity (the reaction without activator) was subtracted from each well and the data were expressed as % maximum AMP activation followed by EC50 calculation.

Sequence of recombinant human AMPK complex 1 (containing α1β1γ1) (Q13131 whole entry): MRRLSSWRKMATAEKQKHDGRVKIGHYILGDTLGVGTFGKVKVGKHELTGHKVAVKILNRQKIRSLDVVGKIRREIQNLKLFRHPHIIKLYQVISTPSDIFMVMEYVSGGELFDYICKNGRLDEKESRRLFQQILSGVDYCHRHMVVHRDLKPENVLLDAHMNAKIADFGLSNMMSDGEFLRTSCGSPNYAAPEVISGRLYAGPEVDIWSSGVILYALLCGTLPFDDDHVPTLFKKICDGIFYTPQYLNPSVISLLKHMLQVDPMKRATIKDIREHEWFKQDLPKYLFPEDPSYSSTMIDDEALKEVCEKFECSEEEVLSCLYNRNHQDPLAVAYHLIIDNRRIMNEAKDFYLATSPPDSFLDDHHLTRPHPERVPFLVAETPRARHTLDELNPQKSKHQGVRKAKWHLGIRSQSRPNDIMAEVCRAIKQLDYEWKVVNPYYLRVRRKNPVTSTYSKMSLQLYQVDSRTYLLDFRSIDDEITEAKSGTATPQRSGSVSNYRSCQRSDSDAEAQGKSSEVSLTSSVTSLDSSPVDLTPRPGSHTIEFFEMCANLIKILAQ
Sequence of recombinant human AMPK complex 1 (containing α1β1γ1) (Q9Y478 whole entry): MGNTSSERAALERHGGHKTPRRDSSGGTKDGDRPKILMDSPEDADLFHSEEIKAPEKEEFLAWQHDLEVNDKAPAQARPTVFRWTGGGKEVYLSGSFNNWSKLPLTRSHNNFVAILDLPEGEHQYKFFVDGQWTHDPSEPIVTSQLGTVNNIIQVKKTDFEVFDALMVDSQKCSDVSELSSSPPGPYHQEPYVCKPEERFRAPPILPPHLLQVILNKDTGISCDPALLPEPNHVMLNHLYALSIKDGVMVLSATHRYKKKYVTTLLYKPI
Sequence of recombinant human AMPK complex 1 (containing α1β1γ1) (P54619 whole entry partner): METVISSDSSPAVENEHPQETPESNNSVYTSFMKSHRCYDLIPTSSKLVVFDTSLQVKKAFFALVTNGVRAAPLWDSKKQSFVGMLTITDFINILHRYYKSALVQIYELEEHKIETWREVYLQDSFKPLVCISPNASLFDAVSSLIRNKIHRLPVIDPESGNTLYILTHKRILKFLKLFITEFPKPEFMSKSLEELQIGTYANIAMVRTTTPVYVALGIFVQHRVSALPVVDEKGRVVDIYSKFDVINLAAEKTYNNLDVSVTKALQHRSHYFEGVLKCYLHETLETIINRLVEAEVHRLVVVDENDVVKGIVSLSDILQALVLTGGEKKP

Compound	Emax
CS(=O)(=O)c1ccc(C#Cc2cc3nc(SCC(=O)O)[nH]c3cc2Cl)cc1 [Example 19, [6-chloro-5-(4-methanesulfonyl-phenyl-ethynyl)-1H-benzo-imidazol-2-yl-sulfanyl]-acetic acid]	> 40%
N#Cc1ccccc1C#Cc1cc2nc(SCC(=O)O)[nH]c2cc1Cl [Example 20, [6-chloro-5-(2-cyano-phenyl-ethynyl)-1H-benzo-imidazol-2-ylsulfanyl]-acetic acid]	> 40%
O=C(O)CSc1nc2cc(C#CC3CCNCC3)c(Cl)cc2[nH]1 [Example 21, (6-chloro-5-piperidin-4-ylethynyl-1H-benzoimidazol-2-ylsulfanyl)-acetic acid]	> 40%
O=C(O)CSc1nc2cc(C#Cc3ccc(F)cc3)c(Cl)cc2[nH]1 [Example 22]	> 40%
O=C(O)CSc1nc2cc(C#Cc3cccc(F)c3)c(Cl)cc2[nH]1 [Example 23]	> 40%
O=C(O)CSc1nc2cc(C#Cc3ccc(F)cc3F)c(Cl)cc2[nH]1 [Example 24, [6-chloro-5-(2,4-difluoro-phenyl-ethynyl)-1H-benzoimidazol-2-ylsulfanyl]-acetic acid]	> 40%
O=C(O)CSc1nc2cc(C#Cc3ccncc3)c(Cl)cc2[nH]1 [Example 25, (6-chloro-5-pyridin-4-yl-ethynyl-1H-benzoimidazol-2-ylsulfanyl)-acetic acid]	> 40%
O=C(O)CSc1nc2cc(C#CCOc3ccccc3)c(Cl)cc2[nH]1 [Example 26, [6-chloro-5-(3-phenoxy-prop-1-ynyl)-1H-benzo-imidazol-2-yl-sulfanyl]-acetic acid]	> 40%
O=C(O)CSc1nc2cc(C#Cc3ccccc3F)c(Cl)cc2[nH]1 [Example 27]	> 40%
N#Cc1ccc(C#Cc2cc3nc(SCC(=O)O)[nH]c3cc2Cl)cc1 [Example 28, [6-chloro-5-(4-cyano-phenyl-elhynyl)-1H-benzoimidazol-2-ylsulfanyl]-acetic acid]	> 40%
O=C(O)CSc1nc2cc(C#Cc3cccc(O)c3)c(Cl)cc2[nH]1 [Example 29, [6-chloro-5-(3-hydroxyphenyl-ethynyl)-1H-benzoimidazol-2-ylsulfanyl]-acetic acid]	> 40%
Cc1ccccc1C#Cc1cc2nc(SCC(=O)O)[nH]c2cc1Cl [Example 30, (6-chloro-5-o-tolylethynyl-1H-benzo-imidazol-2-ylsulfanyl)-acetic acid]	> 40%
Cc1cccc(C#Cc2cc3nc(SCC(=O)O)[nH]c3cc2Cl)c1 [Example 31, (6-chloro-5-m-tolylethynyl-1H-benzoimidazol-2-ylsulfanyl)-acetic acid]	> 40%
COc1cccc(C#Cc2cc3nc(SCC(=O)O)[nH]c3cc2Cl)c1 [Example 32, [6-chloro-5-(3-methoxy-phenyl-ethynyl)-1H-benzoimidazol-2-ylsulfanyl]-acetic acid]	> 40%
O=C(O)CSc1nc2cc(C#Cc3ccc(Oc4ccccc4)cc3)c(Cl)cc2[nH]1 [Example 33, [6-Chloro-5-(4-phenoxy-phenylethynyl)-1H-benzoimidazol-2-ylsulfanyl]-acetic acid]	> 40%
O=C(O)CSc1nc2cc(C#Cc3ccc(-c4ccccc4)cc3)c(Cl)cc2[nH]1 [Example 34, (5-biphenyl-4-ylethynyl-6-chloro-1H-benzoimidazol-2-ylsulfanyl)-acetic acid]	> 40%
O=C(O)CSc1nc2cc(C#CC3CCCC3)c(Cl)cc2[nH]1 [Example 35, (6-chloro-5-cyclo-pentylethynyl-1H-benzo-imidazol-2-yl-sulfanyl)-acetic acid]	> 40%
CCc1ccc(C#Cc2cc3nc(SCC(=O)O)[nH]c3cc2Cl)cc1 [Example 36, [6-chloro-5-(4-ethyl-phenyl-ethynyl)-1H-benzo-imidazol-2-yl-sulfanyl]-acetic acid]	> 40%
COc1ccc2cc(C#Cc3cc4nc(SCC(=O)O)[nH]c4cc3Cl)ccc2c1 [Example 37, [6-chloro-5-(6-methoxy-naphthalen-2-yl-ethynyl)-1H-benzo-imidazol-2-yl-sulfanyl]-acetic acid]	> 40%

Compound	Emax
O=C(O)CSc1nc2cc(C#Cc3cccs3)c(Cl)cc2[nH]1 [Example 38, (6-chloro-5-thiophen-2-yl-ethynyl-1H-benzo-imidazol-2-yl-sulfanyl)-acetic acid]	> 40%
COc1ccc(C#Cc2cc3nc(SCC(=O)O)[nH]c3cc2Cl)cc1 [Example 39, [6-chloro-5-(4-methoxy-phenyl-ethynyl)-1H-benzimidazol-2-ylsulfanyl]-acetic acid]	> 40%
O=C(O)CSc1nc2cc(-c3ccc(OCc4ccccc4)c(F)c3)c(Cl)cc2[nH]1 [Example 40, [5-(4-Benzyloxy-3-fluoro-phenyl)-6-chloro-1H-benzimidazol-2-ylsulfanyl]-acetic acid]	> 40%
O=C(O)CSc1nc2cc(-c3ccc(Cl)cc3)c(Cl)cc2[nH]1 [Example 41, [6-chloro-5-(4-chloro-phenyl)-1H-benzimidazol-2-ylsulfanyl]-acetic acid]	> 40%
COc1ccc(-c2cc3nc(SCC(=O)O)[nH]c3cc2Cl)cc1 [Example 42, [6-chloro-5-(4-methoxy-phenyl)-1H-benzimidazol-2-ylsulfanyl]-acetic acid]	> 40%
CC(C)Cc1ccc(-c2cc3nc(SCC(=O)O)[nH]c3cc2Cl)cc1 [Example 43, [6-chloro-5-(4-isobutyl-phenyl)-1H-benzimidazol-2-ylsulfanyl]-acetic acid]	> 40%
O=C(O)CSc1nc2cc(-c3ccc(OCc4ccccc4)cc3)c(Cl)cc2[nH]1 [Example 44, [5-(4-benzyl-oxy-phenyl)-6-chloro-1H-benzimidazol-2-ylsulfanyl]-acetic acid]	> 40%
CC(C)(COc1nc2cc(C#Cc3ccccc3)c(Cl)cc2[nH]1)C(=O)O [Example 49, 3-(6-Chloro-5-phenylethynyl-1H-benzoimidazol-2-yloxy)-2,2-dimethyl-propionic acid]	> 40%
O=C(O)CCc1nc2cc(-c3ccccc3)c(Cl)cc2[nH]1 [Example 50, 3-(6-Chloro-5-phenyl-1H-benzimidazol-2-yl)-propionic acid]	> 40%
O=C(O)CCc1nc2cc(-c3ccc(-c4ccccc4)cc3)c(Cl)cc2[nH]1 [Example 51, 3-(5-Biphenyl-4-yl-6-chloro-1H-benzimidazol-2-yl)-propionic acid]	> 40%
O=C(O)CSc1nc2cc(C#Cc3cccnc3)c(Cl)cc2[nH]1 [Example 56]	> 40%
O=C(O)CSc1nc2cc(C#Cc3ccccn3)c(Cl)cc2[nH]1 [Example 57]	> 40%
O=C(O)CSc1nc2cc(-c3ccc(-c4ccccc4)s3)c(Cl)cc2[nH]1 [Example 58]	> 40%
O=C(O)CSc1nc2cc(-c3ccc(N4CCCCC4)cc3)c(Cl)cc2[nH]1 [Example 60]	> 40%
O=C(O)CSc1nc2cc(-c3ccc(N4CCOCC4)cc3)c(Cl)cc2[nH]1 [Example 61]	> 40%
O=C(O)CSc1nc2cc(-c3ccc(N4CCOCC4)nc3)c(Cl)cc2[nH]1 [Example 62]	> 40%
O=C(O)CSc1nc2cc(-c3cc4ccccc4s3)c(Cl)cc2[nH]1 [Example 63]	> 40%
O=C(O)CSc1nc2cc(C#Cc3ccc(C(F)(F)F)cc3)c(Cl)cc2[nH]1 [Example 65]	> 40%

Same assay, conditions: recombinant human AMPK complex 1 (α1β1γ1); read-out: EC50

Compound	EC50
O=C(O)CSc1nc2cc(C#Cc3ccc(CO)cc3)c(Cl)cc2[nH]1 [Example 18, [6-Chloro-5-(4-hydroxymethyl-phenylethynyl)-1H-benzoimidazol-2-ylsulfanyl]-acetic acid]	248 nM
O=C(O)COc1nc2cc(-c3ccc(-c4ccn[nH]4)cc3)c(Cl)cc2[nH]1 [Example 45, {6-Chloro-5-[4-(2H-pyrazol-3-yl)-phenyl]-1H-benzoimidazol-2-yloxy}-acetic acid]	160 nM
O=C(O)COc1nc2cc(-c3ccc(-c4ccccc4)cc3)c(Cl)cc2[nH]1 [Example 46, [(5-biphenyl-4-yl-6-chloro-1H-benzimidazol-2-yl)oxy]ylacetic acid]	128 nM
O=C(O)COc1nc2cc(C#Cc3ccc(CO)cc3)c(Cl)cc2[nH]1 [Example 47]	97 nM
O=C(O)COc1nc2cc(C#Cc3ccccc3)c(Cl)cc2[nH]1 [Example 48, (6-Chloro-5-phenylethynyl-1H-benzoimidazol-2-yloxy)-acetic acid]	130 nM
Cn1ccc2cc(-c3cc4nc(SCC(=O)O)[nH]c4cc3Cl)ccc21 [Example 59]	100 nM
